From patent US8367727B2, “Method of using abscisic acid to treat diseases and disorders” (priority 2006, dated 2013)
Marks after values point to notes of the source that are not given here.

What was measured:
db/db mice = experiment: Fasting blood glucose in db/db mice fed high-fat diets for 36 days; type: in vivo; conditions: day 36
Protocol: Four week-old, male BKS.Cg-+Lepr^db/+Lepr^db/OlaHsd (db/db) mice were purchased from Harlan Laboratories (Indianapolis, Ind.) and maintained at the animal facilities at Virginia Polytechnic Institute and State University in a room maintained at 75° F., with a 12:12 h light-dark cycle starting from 6:00 AM. All experimental procedures were approved by the Institutional Animal Care and Use Committee of Virginia Polytechnic Institute and State University and met or exceeded requirements of the Public Health Service/National Institutes of Health and the Animal Welfare Act.
Experiment 1: mice (n=25) were fed high-fat (>40% energy from fat), isocaloric, isonitrogenous diets containing 0, 100, 200, 400, and 800 mg of a racemic (±) ABA mixture/kg diet for 36 days (Table 1) (Sigma). These doses were chosen based on the standard concentrations of TZDs utilized in the treatment of NIDDM. The mice were weighed and their food intake was recorded daily. On day 36 of the study fasted mice (12 h) were bled through the caudal vein and fasting blood glucose concentrations were determined. To investigate the ability of ABA to normalize glucose concentrations, an intraperitoneal glucose tolerance test (IPGTT) was performed on day 36 on the fasted mice. Briefly, mice were bled at 0, 10, 25, and 45 minutes following the administration of glucose (2 g/kg) for measurement of plasma glucose levels. […] Weights were recorded for WAT, interscapular brown adipose tissue (BAT), and liver.
Experiment 2: The ABA dose utilized (100 mg ABA/kg) was based on the results obtained from the IPGTT of the ABA titration study (i.e., Experiment 1). Mice in experiment 2 were fed high-fat diets containing 0 or 100 mg ABA/kg for 36 days. Their body weights and food intake was recorded daily, and blood was collected on day 36 of the study during an IPGTT. This IPGTT included one additional 100 minutes time point. […] Weights were recorded for abdominal WAT, BAT, and liver.
Experiment 1 was a dose-titration study, where we fed 4-week old db/db mice (n=25) diabetogenic, high fat diets containing either 0, 100, 200, 400, or 800 mg racemic ABA mixture/kg diet. […] These in vivo results are in agreement with the transfection findings showing no difference in PPAR γ transactivation between 10 and 50 μM ABA.

[1] = system: colon inflammatory gene expression; experiment: Colon gene expression by real-time quantitative PCR, DSS colitis; type: in vivo, mice
Source text: Complementary DNA (cDNA) concentrations for genes of interest were examined by real-time quantitative PCR using an iCycler IQ System and the iQ SYBR green supermix (Bio-Rad). A standard curve was generated for each gene using 10-fold dilutions of purified amplicons starting at 5 pg of cDNA and used later to calculate the starting amount of target cDNA in the unknown samples. SYBR green I is a general double-stranded DNA intercalating dye and may therefore detect nonspecific products and primer/dimers in addition to the amplicon of interest. In order to determine the number of products synthesized during the real-time PCR, a melting curve analysis was performed on each product. Real-time PCR was used to measure the starting amount of nucleic acid of each unknown sample of cDNA on the same 96-well plate. Results are presented as starting quantity of target cDNA (picograms) per microgram of total RNA.

Which results are given for `CC1=CC(=O)CC(C)(C)C1(O)/C=C/C(C)=C\C(=O)O` (racemic) [ABA, abscisic acid]?
fasting blood glucose (FBG) concentrations versus control diet (db/db mice; 100 to 800 mg ABA/kg diet): significantly lower; Fasting glucose (db/db mice; Experiment 1, 100 mg ABA/kg diet): 219.6^b mg/dL; Fasting glucose (db/db mice; Experiment 1, 200 mg ABA/kg diet): 210.2^b mg/dL; Fasting glucose (db/db mice; Experiment 1, 400 mg ABA/kg diet): 185.6^a mg/dL; Fasting glucose (db/db mice; Experiment 1, 800 mg ABA/kg diet): 202.0^b mg/dL; Fasting glucose (db/db mice; Experiment 2, 100 mg ABA/kg diet): 190.7^b mg/dL; colonic expression of E-selectin ([1]; ABA-supplementation, DSS): significantly lowered; colonic expression of ICAM-1 ([1]; ABA-supplementation, DSS): no affect; colonic expression of MAdCAM-1 ([1]; ABA-supplementation, DSS): significantly lowered; colonic expression of PECAM-1 ([1]; ABA-supplementation, DSS): no affect; colonic expression of VCAM-1 ([1]; ABA-supplementation, DSS): significantly lowered; colonic IL-6 ([1]; ABA-treated mice): significantly attenuated levels; colonic MMP-9 ([1]; ABA-treated mice): significantly attenuated levels; colonic iNOS ([1]; ABA-treated mice): significantly attenuated levels; colonic PPAR γ, CD36 and FABP4 expression ([1]; colons of ABA-fed mice): Neither colonic PPAR γ nor its responsive genes CD36, or FABP4 were significantly affected
